PubChem BioAssay (NCI)
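All cell lines were grown in 96-well plates and treated with compound for 48 hours. GI50 is the concentration that inhibits growth by half. Definition used: TGI = concentration required for complete inhibition of growth.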

Tests used:
Assay in all cases: NCI tumour cell line growth inhibition, 48 h
[1] = test system: CCRF-CEM leukemia
[2] = test system: SK-MEL-5 melanoma
[3] = test system: NCI/ADR-RES ovarian
[4] = test system: HCC-2998 colon
[5] = test system: TK-10 renal
[6] = test system: UO-31 renal
[7] = test system: MOLT-4 leukemia
[8] = test system: HS 578T breast
[9] = test system: SF-295 CNS
[10] = test system: SK-OV-3 ovarian

Row | SMILES | TGI [1] | TGI [2] | TGI [3] | TGI [4] | TGI [5] | TGI [6] | TGI [7] | TGI [8] | GI50 [1] | GI50 [2] | GI50 [3] | GI50 [4] | GI50 [5] | GI50 [9] | TGI [9] | GI50 [10] | TGI [10] | GI50 [6] | GI50 [7] | GI50 [8]
1 | C=C(Br)COc1ccc2c(C)cc(=O)oc2c1 | > 100 µM | 37.4 µM | > 100 µM | > 100 µM | > 100 µM | > 100 µM | > 100 µM | > 100 µM | – | – | – | – | – | – | – | – | – | – | – | –
2 | C[C@]12CC[C@H]3[C@@H](CC[C@]4(O)C[C@@H](O[C@@H]5O[C@H](CO)[C@@H](O[C@@H]6OC[C@@H](O)[C@H](O)[C@H]6O)[C@H](O)[C@H]5O)CC[C@]34C=O)[C@@]1(O)CC[C@@H]2C1=CC(=O)OC1 | 5.24 µM | 2.88 µM | 2.4 µM | 21.3 µM | 4.49 µM | 5.01 µM | 1.82 µM | 4.31 µM | 0.78 µM | 1.22 µM | 0.999 µM | 3.09 µM | 1.19 µM | 1.7 µM | 6.27 µM | 1.75 µM | 7.69 µM | 1.54 µM | 0.302 µM | 0.845 µM
3 | COc1ccc(/C=C/C(=O)/C=C(O)/C=C/c2ccc(OC)c(OC)c2)cc1OC | > 100 µM | 12.7 µM | > 100 µM | 34.9 µM | > 100 µM | > 100 µM | > 100 µM | > 100 µM | 3.66 µM | 3.01 µM | 3.86 µM | 14.5 µM | 4.03 µM | 6.36 µM | > 100 µM | > 100 µM | > 100 µM | 5.27 µM | 5.38 µM | 3.68 µM
4 | CC[C@@]1(O)C(=O)OCc2c1cc1n(c2=O)Cc2c-1nc1cc(F)c(C)c3c1c2[C@@H](NC(=O)CO)CC3 | > 100 µM | 0.119 µM | 3.98 µM | 3.51 µM | 7.43 µM | 0.485 µM | > 100 µM | > 100 µM | < 0.01 µM | < 0.0109 µM | 0.0564 µM | 0.163 µM | 0.4 µM | < 0.01 µM | 0.338 µM | 0.0173 µM | 4.96 µM | 0.019 µM | < 0.01 µM | 1.25 µM
5 | COc1cc(C)[nH]c(=O)c1CNC(=O)c1c(C)n([C@H](C)C2CCN(CC(F)(F)F)CC2)c2ccccc12 | > 100 µM | 54.4 µM | > 100 µM | > 100 µM | > 100 µM | > 100 µM | > 100 µM | > 100 µM | 50.4 µM | 19 µM | 77.2 µM | > 100 µM | 88.5 µM | 31.8 µM | > 100 µM | 51.8 µM | > 100 µM | 28.2 µM | 35.9 µM | 95.3 µM
6 | CC(C)C1=CC2=C(C(=O)C1=O)C13CCCC(C)(C)C1CC2OC3=O (stereo unspecified) | 33.1 µM | 55.1 µM | 40.1 µM | 46.3 µM | 28.6 µM | 40.8 µM | 32.7 µM | > 100 µM | – | – | – | – | – | – | > 100 µM | – | > 100 µM | – | – | –
7 | O=C(/C=C/C=C/c1ccc2c(c1)OCO2)N/N=C\c1ccc(O)cc1O | 17.9 µM | 3.87 µM | 7.6 µM | 18.3 µM | 33 µM | 8.75 µM | 18.8 µM | 8.15 µM | 0.559 µM | 1.63 µM | 1.29 µM | 2.44 µM | 2.95 µM | 0.925 µM | 12.9 µM | 3.43 µM | 20.9 µM | 1.47 µM | 1.41 µM | 2.29 µM
8 | CCn1ncc(N=O)c1N | > 100 µM | > 100 µM | > 100 µM | > 100 µM | > 100 µM | > 100 µM | > 100 µM | > 100 µM | – | – | – | – | – | – | > 100 µM | – | – | – | – | –
9 | COc1ccc(/C=C\c2cc(OC)c(OC)c(OC)c2)c(NS(=O)(=O)c2ccc(F)cc2)c1O | > 100 µM | 0.515 µM | 3.4 µM | 6.9 µM | > 100 µM | > 82.9 µM | > 100 µM | > 100 µM | 0.0435 µM | 0.102 µM | 0.179 µM | 0.169 µM | 2.25 µM | 0.214 µM | > 45.9 µM | 0.211 µM | > 100 µM | 0.333 µM | 0.0466 µM | 0.113 µM
10 | Nc1c(C(=O)Nc2cccc(C(F)(F)F)c2)sc2nc3c(cc12)CCCCCC3 | > 100 µM | 15 µM | 10.9 µM | > 100 µM | 5.82 µM | 8.57 µM | 35.1 µM | 9.92 µM | 5.73 µM | 2.15 µM | 2.69 µM | 12.3 µM | 2.18 µM | 1.58 µM | 3.6 µM | 2.26 µM | 6.29 µM | 2.18 µM | 11.1 µM | 3.25 µM
11 | CO/C(=C1/NC(=O)C(Cc2ccc(O)c(Br)c2)N(C)C(=O)C(C)NC(=O)CCC/C=C(\C)CCC(C)OC1=O)c1ccccc1 (stereo unspecified) | 0.0805 µM | 0.387 µM | 18.1 µM | 0.311 µM | – | 0.0458 µM | > 100 µM | 0.0553 µM | 0.0185 µM | 0.0327 µM | 0.0566 µM | < 0.0154 µM | – | 0.0502 µM | 0.17 µM | 0.0245 µM | 0.0662 µM | 0.0192 µM | 0.119 µM | 0.0225 µM
12 | Nc1nc(N)c2c(n1)CCC(S(=O)(=O)c1ccc3ccccc3c1)C2 (stereo unspecified) | > 100 µM | 19.2 µM | > 100 µM | 26.7 µM | 51.4 µM | > 75.3 µM | 27.2 µM | 77.6 µM | – | – | – | – | – | – | > 100 µM | – | > 100 µM | – | – | 5.05 µM
13 | COc1cc(N2CCC(N)CC2)ccc1Nc1ncc(Cl)c(-c2c[nH]c3ccccc23)n1 | 7.15 µM | 2.84 µM | 4.11 µM | 2.23 µM | 1.6 µM | 2.12 µM | 4.86 µM | 3.87 µM | 2.17 µM | 1.49 µM | 1.49 µM | 0.649 µM | 0.36 µM | 1.54 µM | 3.31 µM | 0.68 µM | 2.8 µM | 0.339 µM | 1.4 µM | 0.741 µM
